# Assay results taken from US9394311B2, “Triazolo compounds as PDE10 inhibitors” (Hoffmann-La Roche Inc., priority 2012, dated 2016).
# Target: human PDE10A (Homo sapiens (Human), UniProt Q9Y233)
# Assay: human PDE10A full length Scintillation Proximity Assay (SPA)
# Assay type: biochemical
# Conditions: PDE10A full length enzyme, 50 nM cGMP / [3H]-cGMP substrate, 20 minutes at room temperature
# Method: The following test was carried out in order to determine the activity of the compounds of the present invention. PDE10 activity of the compounds of the present invention was determined using a Scintillation Proximity Assay (SPA)-based method similar to the one previously described (Fawcett, L. et al., Proc Natl Acad Sci USA (2000) 97(7):3702-3707).
# The human PDE10A full length assay was performed in 96-well micro titer plates. The reaction mixture of 50 μl contained 20 mM HEPES pH=7.5/10 mM MgCl2/0.05 mg/ml BSA (Sigma cat. # A-7906), 50 nM cGMP (Sigma, cat. # G6129) and 50 nM [3H]-cGMP (GE Healthcare, cat. # TRK392 S.A. 13.2 Ci/mmol), 3.75 ng/well PDE10A enzyme (Enzo Life Science, Lausen, Switzerland cat # SE-534) with or without a specific test compound. A range of concentrations of the potential inhibitor was used to generate data for calculating the concentration of inhibitor resulting in 50% of the effect (e.g. IC50, the concentration of the competitor inhibiting PDE10A activity by 50%). Non-specific activity was tested without the enzyme. The reaction was initiated by the addition of the substrate solution (cGMP and [3H]-cGMP) and allowed to progress for 20 minutes at room temperature. The reaction was terminated by adding 25 μl of YSi-SPA scintillation beads (GE Healthcare, cat. # RPNQ0150) in 18 mM zinc sulphate solution (stop reagent). After 1 h under shaking, the plate was centrifuged one minute at 170 g to allow beads to settle. Afterwards, radioactive counts were measured on a Perkin Elmer Top-Count Scintillation plate reader.
# human PDE10A, sequence (Q9Y233 other isoform, or with tags, fused parts or gaps): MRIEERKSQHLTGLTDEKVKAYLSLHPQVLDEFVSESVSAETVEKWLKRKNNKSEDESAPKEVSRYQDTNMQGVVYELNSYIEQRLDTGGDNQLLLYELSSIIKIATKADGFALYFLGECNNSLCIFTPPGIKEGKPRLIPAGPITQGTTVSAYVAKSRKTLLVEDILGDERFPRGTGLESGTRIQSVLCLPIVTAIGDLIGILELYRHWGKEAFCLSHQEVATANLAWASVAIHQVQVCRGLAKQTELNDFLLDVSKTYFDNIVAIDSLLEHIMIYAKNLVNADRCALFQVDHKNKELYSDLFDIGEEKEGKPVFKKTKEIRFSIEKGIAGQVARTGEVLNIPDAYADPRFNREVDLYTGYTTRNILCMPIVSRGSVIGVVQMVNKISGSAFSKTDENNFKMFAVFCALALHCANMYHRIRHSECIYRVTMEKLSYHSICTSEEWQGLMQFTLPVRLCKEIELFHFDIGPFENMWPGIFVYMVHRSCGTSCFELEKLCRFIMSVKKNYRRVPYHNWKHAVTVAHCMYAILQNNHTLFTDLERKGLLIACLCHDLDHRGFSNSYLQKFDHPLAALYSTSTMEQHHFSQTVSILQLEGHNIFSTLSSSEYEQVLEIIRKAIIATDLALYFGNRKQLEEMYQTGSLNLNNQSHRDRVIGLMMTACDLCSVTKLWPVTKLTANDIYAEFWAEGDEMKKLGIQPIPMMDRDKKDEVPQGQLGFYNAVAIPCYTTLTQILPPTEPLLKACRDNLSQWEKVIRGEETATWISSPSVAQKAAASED
row,Compound,IC50
1,"Cc1ccc2nc(CCc3nc(N4CCCC4)nn3C)nn2c1C [Example 40, 5,6-Dimethyl-2-(2-(1-methyl-3-(pyrrolidin-1-yl)-1H-1,2,4-triazol-5-yl)ethyl)-[1,2,4]triazolo[1,5-a]pyridine]",10.2 nM
2,"Cc1nc(C)c2nc(CCc3nc(N4CCCC4)nn3C)nn2c1C [Example 41, 5,6,8-Trimethyl-2-(2-(1-methyl-3-(pyrrolidin-1-yl)-1H-1,2,4-triazol-5-yl)ethyl)-[1,2,4]triazolo[1,5-a]pyrazine]",37.3 nM
3,"Cc1nc(C)n2nc(CCc3nc(N4CCCC4)nn3C)nc2c1C [Example 42, 5,7,8-Trimethyl-2-(2-(1-methyl-3-(pyrrolidin-1-yl)-1H-1,2,4-triazol-5-yl)ethyl)-[1,2,4]triazolo[1,5-c]pyrimidine]",13.6 nM
4,"COC1CCN(c2nc(CCc3nc4c(C)ncc(C)n4n3)n(C)n2)C1 (centres unmarked) [Example 43, 2-{2-[5-(3-Methoxy-pyrrolidin-1-yl)-2-methyl-2H-[1,2,4]triazol-3-yl]-ethyl}-5,8-dimethyl-[1,2,4]triazolo[1,5-a]pyrazine]",84.3 nM
5,"Cc1nc(C)n2nc(CCc3nc(N4CCCC4)nn3C)nc2c1Cl [Example 44, 8-Chloro-5,7-dimethyl-2-(2-(1-methyl-3-(pyrrolidin-1-yl)-1H-1,2,4-triazol-5-yl)ethyl)-[1,2,4]triazolo[1,5-c]pyrimidine]",9.41 nM
6,"Cc1cc2nc(CCc3nc(N4CCCC4)nn3C)nn2c(C)n1 [Example 45, 5,7-Dimethyl-2-(2-(1-methyl-3-(pyrrolidin-1-yl)-1H-1,2,4-triazol-5-yl)ethyl)-[1,2,4]triazolo[1,5-c]pyrimidine]",58.8 nM
7,"Cc1cc(Cl)c(C)n2nc([C@H]3C[C@@H]3c3nc(N4CCCC4)nn3C)nc12 [Example 46, 6-Chloro-5,8-dimethyl-2-[(1S,2S)-2-(2-methyl-5-pyrrolidin-1-yl-2H-[1,2,4]triazol-3-yl)-cyclopropyl]-[1,2,4]triazolo[1,5-a]pyridine]",4.98 nM
8,"CCn1nc(C#Cc2nc3c(C)ncc(C)n3n2)nc1N1CCCC1 [Example 47, 2-((1-Ethyl-5-(pyrrolidin-1-yl)-1H-1,2,4-triazol-3-yl)ethynyl)-5,8-dimethyl-[1,2,4]triazolo[1,5-a]pyrazine]",4.48 nM
9,"CCn1nc(CCc2nc3c(C)ncc(C)n3n2)nc1N1CCCC1 [Example 48, 2-(2-(1-Ethyl-5-(pyrrolidin-1-yl)-1H-1,2,4-triazol-3-yl)ethyl)-5,8-dimethyl-[1,2,4]triazolo[1,5-a]pyrazine]",28.5 nM
10,"Cc1ncc(C)n2nc(CCc3nc(N4CCCCC4)nn3C)nc12 [Example 49, 5,8-Dimethyl-2-[2-(2-methyl-5-piperidin-1-yl-2H-[1,2,4]triazol-3-yl)-ethyl]-[1,2,4]triazolo[1,5-a]pyrazine]",31.6 nM
11,"CCc1ncc(C)c2nc(CCc3nc(N4CCCC4)nn3C)nn12 [Example 50, 5-Ethyl-8-methyl-2-(2-(1-methyl-3-(pyrrolidin-1-yl)-1H-1,2,4-triazol-5-yl)ethyl)-[1,2,4]triazolo[1,5-c]pyrimidine]",4.9 nM
12,"Cc1ncc(C)n2nc(CCc3nc(N4CCCC4C)nn3C)nc12 (centres unmarked) [Example 51, 5,8-Dimethyl-2-{2-[2-methyl-5-(2-methyl-pyrrolidin-1-yl)-2H-[1,2,4]triazol-3-yl]-ethyl}-[1,2,4]triazolo[1,5-a]pyrazine]",28.4 nM
13,"Cc1c(Cl)cc(Cl)c2nc(CCc3nc(N4CCCC4)nn3C)nn12 [Example 52, 6,8-Dichloro-5-methyl-2-[2-(2-methyl-5-pyrrolidin-1-yl-2H-[1,2,4]triazol-3-yl)-ethyl]-[1,2,4]triazolo[1,5-a]pyridine]",0.63 nM
14,"Cn1nc(N2CCCC2)nc1CCc1nc2ccc(C#N)cn2n1 [Example 53, 2-(2-(1-Methyl-3-(pyrrolidin-1-yl)-1H-1,2,4-triazol-5-yl)ethyl)-[1,2,4]triazolo[1,5-a]pyridine-6-carbonitrile]",381 nM
15,"Cn1nc(N2CCCC2)nc1CCc1nc2c(Cl)cc(C(F)(F)F)cn2n1 [Example 54, 8-Chloro-2-(2-(1-methyl-3-(pyrrolidin-1-yl)-1H-1,2,4-triazol-5-yl)ethyl)-6-(trifluoromethyl)-[1,2,4]triazolo[1,5-a]pyridine]",105 nM
16,"Cc1ccn2nc(CCc3nc(N4CCCC4)nn3C)nc2c1[N+](=O)[O-] [Example 55, 7-Methyl-2-(2-(1-methyl-3-(pyrrolidin-1-yl)-1H-1,2,4-triazol-5-yl)ethyl)-8-nitro-[1,2,4]triazolo[1,5-a]pyridine]",94.7 nM
17,"Cn1nc(N2CCCC2)nc1CCc1nc2ccc3ccccc3n2n1 [Example 56, 2-(2-(1-Methyl-3-(pyrrolidin-1-yl)-1H-1,2,4-triazol-5-yl)ethyl)-[1,2,4]triazolo[1,5-a]quinoline]",29.2 nM
18,"Cc1cncc2nc(CCc3nc(N4CCCC4)nn3C)nn12 [Example 57, 5-Methyl-2-(2-(1-methyl-3-(pyrrolidin-1-yl)-1H-1,2,4-triazol-5-yl)ethyl)-[1,2,4]triazolo[1,5-a]pyrazine]",251 nM
19,"Cc1cnc(C)n2nc(CCc3nc(N4CCCC4)nn3C)nc12 [Example 58, 5,8-Dimethyl-2-[2-(2-methyl-5-pyrrolidin-1-yl-2H-[1,2,4]triazol-3-yl)-ethyl]-[1,2,4]triazolo[1,5-c]pyrimidine]",8.21 nM

# The next lines start with the values.
row,IC50,Compound
1,50.6 nM,"CCN(CC)c1nc(CCc2nc3c(C)ncc(C)n3n2)n(C)n1 [Example 59, {5-[2-(5,8-Dimethyl-[1,2,4]triazolo[1,5-a]pyrazin-2-yl)-ethyl]-1-methyl-1H-[1,2,4]triazol-3-yl}-diethyl-amine]"
2,186 nM,"CCN(c1nc(CCc2nc3c(C)ncc(C)n3n2)n(C)n1)C1CC1 [Example 60, Cyclopropyl-{5-[2-(5,8-dimethyl-[1,2,4]triazolo[1,5-a]pyrazin-2-yl)-ethyl]-1-methyl-1H-[1,2,4]triazol-3-yl}-ethyl-amine]"
3,0.72 nM,COc1ccc(Cn2nc(N3CCCC3)nc2CCc2nc3c(Cl)cc(Cl)c(C)n3n2)cc1 [Example 61]
4,3.23 nM,"COc1ccc(Cn2nc(CCc3nc4c(Cl)cc(Cl)c(C)n4n3)nc2N2CCCC2)cc1 [Example 62, 6,8-Dichloro-2-(2-(1-(4-methoxybenzyl)-5-(pyrrolidin-1-yl)-1H-1,2,4-triazol-3-yl)ethyl)-5-methyl-[1,2,4]triazolo[1,5-a]pyridine]"
5,32.4 nM,"Cn1nc(N2CCCC2)nc1CCc1nc2cc(C(F)(F)F)c(F)c(N)n2n1 [Example 63, 6-Fluoro-2-(2-(1-methyl-3-(pyrrolidin-1-yl)-1H-1,2,4-triazol-5-yl)ethyl)-7-(trifluoromethyl)-[1,2,4]triazolo[1,5-a]pyridin-5-amine]"
6,56.6 nM,"Cn1nc(N2CCCC2)nc1CCc1nc2cccc(C(F)(F)F)n2n1 [Example 64, 2-(2-(1-Methyl-3-(pyrrolidin-1-yl)-1H-1,2,4-triazol-5-yl)ethyl)-5-(trifluoromethyl)-[1,2,4]triazolo[1,5-a]pyridine]"
7,331 nM,"Cn1nc(N2CCCC2)nc1CCc1nc2cc(C(F)(F)F)ccn2n1 [Example 66, 2-(2-(1-Methyl-3-(pyrrolidin-1-yl)-1H-1,2,4-triazol-5-yl)ethyl)-7-(trifluoromethyl)-[1,2,4]triazolo[1,5-a]pyridine]"
8,317 nM,"Cn1nc(N2CCCC2)nc1CCc1nc2cc(C#N)ccn2n1 [Example 67, 2-(2-(1-Methyl-3-(pyrrolidin-1-yl)-1H-1,2,4-triazol-5-yl)ethyl)-[1,2,4]triazolo[1,5-a]pyridine-7-carbonitrile]"
9,0.22 nM,"Cc1c(Cl)cc(Cl)c2nc(CCc3n[nH]c(N4CCCC4)n3)nn12 [Example 68, 6,8-Dichloro-5-methyl-2-[2-(5-pyrrolidin-1-yl-1H-[1,2,4]triazol-3-yl)-ethyl]-[1,2,4]triazolo[1,5-a]pyridine]"
10,0.5 nM,"Cc1c(Cl)cc(C(F)(F)F)c2nc(CCc3nc(N4CCCC4)nn3C)nn12 [Example 69, 6-Chloro-5-methyl-2-[2-(2-methyl-5-pyrrolidin-1-yl-2H-[1,2,4]triazol-3-yl)-ethyl]-8-trifluoromethyl-[1,2,4]triazolo[1,5-c]pyridine]"
11,1.01 nM,"Cc1c(Cl)cc(Br)c2nc(CCc3nc(N4CCCC4)nn3C)nn12 [Example 71, 8-Bromo-6-chloro-5-methyl-2-[2-(2-methyl-5-pyrrolidin-1-yl-2H-[1,2,4]triazol-3-yl)-ethyl]-[1,2,4]triazolo[1,5-a]pyridine]"
12,1.22 nM,"Cc1c(Br)cc(Cl)c2nc(CCc3nc(N4CCCC4)nn3C)nn12 [Example 72, 6-Bromo-8-chloro-5-methyl-2-(2-(1-methyl-3-(pyrrolidin-1-yl)-1H-1,2,4-triazol-5-yl)ethyl)-[1,2,4]triazolo[1,5-a]pyridine]"
13,86.9 nM,"Cc1c(Cl)cc(S(C)(=O)=O)c2nc(CCc3nc(N4CCCC4)nn3C)nn12 [Example 73, 6-Chloro-8-methanesulfonyl-5-methyl-2-[2-(2-methyl-5-pyrrolidin-1-yl-2H-[1,2,4]triazol-3-yl)-ethyl]-[1,2,4]triazolo[1,5-a]pyridine]"
